The results in this text go back to patent publication US4694004A, “Semicarbazide derivatives, processes for preparation thereof and pharmaceutical composition comprising the same” (Fujisawa Pharmaceutical Co., Ltd., priority 1984, dated 1987).

For test [1], the system named is Paw edema induced by carrageenin. Nature of the test: Carrageenin Foot Edema (antiinflammatory activity). The note with it: Dose: 32 mg/kg, orally 60 minutes before phlogogen; edema volume 3 hours after 1% carrageenin; rats. The class given is in vivo, male Sprague-Dawley rats. Here is the method: (1) Carrageenin Foot Edema
Five male Sprague-Dawley rats weighing about 200 g were used per group.
Paw edema was induced by subplantar injection of 1% carrageenin (0.1 ml/rat) into the right hind paw. The test drug was suspended in 0.5% methylcellulose and administered orally 60 minutes before phlogogen. Paw volume was measured with plethysmometer (Ugo Bazil Co., Ltd.) by water displacement immersing the paw to the lateral malleolus. The difference of paw volume before and 3 hours after the phlogogen was designated as edema volume.
The data were analyzed statistically by student's t-test.
On the technique in general: The carrageenan paw model is a standard test of acute inflammation.

Test [2] deals with writhing syndrome induced by acetic acid. In words: Acetic Acid Induced Writhing (analgesic activity). The class given is in vivo, male ddY strain mice. The note with it: Dose: 32 mg/kg, orally 60 minutes before 0.6% acetic acid i.p.; observed from 3 to 13 minutes; mice. As for the experimental part: (1) Acetic Acid Induced Writhing
Ten male ddY strain mice were used per group. To estimate the frequency of writhing syndrome, the animals were observed from 3 to 13 minutes after an intraperitoneal injection of 0.2 ml/10 g of 0.6% acetic acid. The drugs were given orally 60 minutes before acetic acid. The frequency of writhing syndrome in the treated animals was compared with that in the nontreated control animals.
A general note: An intraperitoneal irritant provokes the stretching counted in writhing tests.

Take `O=C(Nc1ccccn1)NN1CC=CCC1` [Compound C, N-[(2-Pyridylcarbamoyl)amino]-1,2,3,6-tetrahydropyridine]: the “Inhibition (%) of carrageenin foot edema” value in test [1] is given as 50.9%. Still for that read-out and setting: the result for `O=C(Nc1cnccn1)NN1CC=CCC1` [Compound E, N-(Pyrazinylcarbamoylamino)-1,2,3,6-tetrahydropyridine] reads 54.7%. As to `O=C(NN1CC=CCC1)NN1CCCC1` [Compound G, N-[(1-Pyrrolidinylcarbamoyl)amino]-1,2,3,6-tetrahydropyridine], the “Inhibition (%) of acetic acid induced writhing” value in test [2] was determined as 84.7%.

As for `O=C(Nc1ccncn1)NN1CC=CCC1` [Compound D, N-[(4-Pyrimidinylcarbamoyl)amino]-1,2,3,6-tetrahydropyridine], the “Inhibition (%) of carrageenin foot edema” value in test [1] was 48.0%. In addition, the “Inhibition (%) of acetic acid induced writhing” value in test [2] worked out at 68.5%.

`O=C(Nc1ccc(Cl)nc1)NN1CC=CCC1` [Compound F, N-[[(2-Chloropyridin-5-yl)carbamoyl]amino]-1,2,3,6-tetrahydropyridine]: the “Inhibition (%) of carrageenin foot edema” value in test [1] is on record as 49.9%. In addition, the “Inhibition (%) of acetic acid induced writhing” value in test [2] is reported as 75.1%.

For `O=C(Nc1ccncc1)NN1CC=CCC1` [Compound A, N-[(4-Pyridylcarbamoyl)amino]-1,2,3,6-tetrahydropyridine], the “Inhibition (%) of carrageenin foot edema” value in test [1] came to 41.4%. The “Inhibition (%) of acetic acid induced writhing” value in test [2] is 73.4%.

For the compound `O=C(Nc1cccnc1)NN1CC=CCC1` [Compound B, N-[(3-Pyridylcarbamoyl)amino]-1,2,3,6-tetrahydropyridine], in test [1], the “Inhibition (%) of carrageenin foot edema” value amounted to 45.9%. The “Inhibition (%) of acetic acid induced writhing” value in test [2] came to 95.5%. On to `O=C(NN1CC=CCC1)NN1CC=CCC1` [Compound H, N,N'-[Bis-(1,2,3,6-tetrahydropyridin-1-yl)]urea], for which, in test [2], the “Inhibition (%) of acetic acid induced writhing” value is given as 82.0%.
